In patent US7326538B2, “Binding proteins as biosensors” (Becton Dickinson and Company, priority 2002, dated 2008):

Key:
[1] = SPR glucose detection on immobilized GGBP sensor surfaces (BIACORE); format: binding; conditions: for SPR Signal, Buffer: running buffer injection; for glucose detection by SPR using thiol-coupled mutants (FIG. 8): 0.1 mM and 1 mM glucose, thiol-coupled surfaces
Protocol: Proteins were immobilized onto a carboxymethyldextran (CM5) sensor surface (BIACORE) by thiol coupling using standard thiol coupling chemistry with a flow rate of 5 μl/min in 10 mM HEPES pH 7.4, 150 mM NaCl, 0.05% BIACORE Surfactant P20 (BIAcore) (HBS-P) running buffer. The sensor surface was activated with a 2 minute pulse of […] (EDC/NHS) followed by a 4 min pulse of 80 mM 2-(2-pyridinyldithio) ethaneamine (PDEA), 0.1 M sodium borate pH 8.5, E149C GGBP (1.8 mg/ml) was injected at a 1:50 dilution in 10 mM sodium acetate pH 4.5 for various times. Carbonic anhydrase 11 (5 mg/ml) was injected at 1:10 dilution in 10 mM sodium acetate pH 4.5 for 20 minutes. G74C GGBP (2.6 mg/ml) was injected at 1:50 dilution in 10 mM sodium acetate pH 4.5 for 12 minutes. A213C GGBP (0.6 mg/ml) was injected at 1:20 dilution in 10 mM sodium acetate pH 4.5 for 2 4 minutes. A 4 minute pulse of 50 mM cysteine, 1 M NaCl, 0.1 M sodium formate pH 4.3 was used to quench the reaction and remove non-specifically bound protein from the surface. Following immobilization, the protocol DESORB (0.5% SDS, 50 mM glycine pH 9.5) was run to remove protein aggregates from the system. Surfaces of 3000 RU (E149C GGBP), 4500 RU (carbonic anydrase), 2000 RU (A213C GGBP), and 4000 RU (G74C GGBP) were used for experiments.
Proteins were immobilized onto a Carboxymethyldextran (CM5) sensor surface (BIAcore) by amine coupling using standard amine coupling chemistry with a flow rate of 5 μl/min in HBS-P running buffer. The surface was activated with a 7 minute pulse of EDC/NHS. Proteins (WT GGBP, 2 mg/ml; E149C GGBP, 1.8 mg/ml) were injected at a 1:50 dilution in 10 mM sodium acetate pH 4.5 for 20 minutes. A pulse of 1 M ethanolamine pH 8.0 was injected to quench the reaction and remove nonspecifically bound protein. Surfaces of 4800 RU for E149C and 2400 RU for wild type GGBP were used for experiments.
Thiol coupling of E149C GGBP on C1 surfaces was carried out as follows. E149C GGBP was immobilized on a carboxymethyl (C1) chip using standard thiol coupling chemistry with a flow rate of 5 μl/min in HBS-P running buffer. The C1 surface was activated with a 4 min pulse of EDC/NHS followed by a 4 min pulse of 80 mM PDEA of 0.1 M sodium borate pH 8.5. E149C GGBP (1.8 mg/ml) was injected at a 1:2 dilution in 10 mM sodium acetate pH 4.5 for 50 minutes at a flow rate of 1 μl/min. A 7 minute pulse of 50 mM cysteine, 1M NaCl, 0.1 M sodium formate pH 4.3 was used to quench the reaction and remove non-specifically bound protein from the surface. A surface of 9000 RU was used for experiments.
Amine coupling of E149C GGBP on C1 surfaces. E149C GGBP was immobilized on a C1 chip using standard amine coupling chemistry with a flow rate of 5 μl/min in HBS-P running buffer. The surface was activated with a 7 minute pulse of EDC/NHS. E149C GGBP (1.8 mg/ml) was injected at a 1:2 dilution in 1 0 MM sodium acetate pH 4.5 for 50 minutes at a flow rate of 1 μl/min. A pulse of 1 M ethanolamine pH 8.0 was injected to quench the reaction and remove nonspecifically bound protein.
All glucose injections were performed at 25° C. in the appropriate running buffer for the specific experiment. Glucose injections were 10 μl at a flow rate of 10 μl/min (1 minute contact time). Injections of different glucose concentrations were repeated three times and alternated between the protein and blank surfaces. The protein surface was regenerated by washing of the flow channel with running buffer followed by a running buffer injection. Sensorgrams were either blank surface subtracted or were double referenced by first subtracting the glucose injection over a blank surface from the corresponding glucose injection on the protein surface. A buffer injection over the blank surface was then subtracted from a buffer injection over the protein surface. The final sensorgram was obtained by subtracting the normalized buffer injection from the normalized glucose injection. […]

[2] = SPR response of thiol coupled E149C GGBP to a panel of sugars; format: binding; conditions: sugars at 100 μM, 3000 RU thiol-coupled surface
Protocol: All glucose injections were performed at 25° C. in the appropriate running buffer for the specific experiment. Glucose injections were 10 μl at a flow rate of 10 μl/min (1 minute contact time). Injections of different glucose concentrations were repeated three times and alternated between the protein and blank surfaces. The protein surface was regenerated by washing of the flow channel with running buffer followed by a running buffer injection. Sensorgrams were either blank surface subtracted or were double referenced by first subtracting the glucose injection over a blank surface from the corresponding glucose injection on the protein surface. A buffer injection over the blank surface was then subtracted from a buffer injection over the protein surface. The final sensorgram was obtained by subtracting the normalized buffer injection from the normalized glucose injection.
FIG. 2 depicts the specificity of E149C mutated GGBP to bind glucose preferentially. The indicated sugars were injected at a concentration of 100 μM on a 3000 RU thiol-coupled E149C surface. Double referenced sensorgrams were averaged during the time frame corresponding between 10 and 50 seconds during the injection. Each injection was done in triplicate.

[3] = amine coupling, CM5 chip, 100 μM glucose
[4] = thiol coupling, CM5 chip, 100 μM glucose, blank subtracted or double referenced

WT GGBP H6: wild type E. coli Galactose/Glucose Binding Protein with histidine tag, non-thiol negative control [reference compound]
SPR Signal at Saturating Amounts of Glucose [1, 3]: 5.9 ± 2.3/ RU | SPR Signal, Buffer ([1]; amine coupling, CM5 chip): 2.9 ± 1.5 RU

A213C GGBP H6: GGBP with cysteine substituted for alanine at position 213, histidine tag
glucose detection by SPR using thiol-coupled mutants (FIG. 8) [1]: signal-enhanced glucose detection | SPR Signal, Buffer ([1]; thiol coupling, CM5 chip): −0.5 ± 0.4 RU | SPR Signal at Saturating Amounts of Glucose ([1]; thiol coupling, CM5 chip, 1 mM glucose): 119 ± 0.4/ RU

G74C GGBP H6: GGBP with cysteine substituted for glycine at position 74, histidine tag
glucose detection by SPR using thiol-coupled mutants (FIG. 8) [1]: signal-enhanced glucose detection | SPR Signal, Buffer ([1]; thiol coupling, CM5 chip): 2.7 ± 3.6 RU | SPR Signal at Saturating Amounts of Glucose [1, 4]: 22.3 ± 0.2/ RU

K137C GGBP H6: GGBP with cysteine substituted for lysine at position 137, histidine tag
SPR Signal, Buffer ([1]; thiol coupling, CM5 chip): 4.8 ± 3.2 RU | SPR Signal at Saturating Amounts of Glucose [1, 4]: 9.5 ± 4.2/ RU

E149C GGBP H6: E. coli GGBP with cysteine substituted for glutamic acid at position 149, C-terminal six-histidine tag
glucose detection on C1 surface (FIG. 7) ([1]; 100 μM glucose, 2000 RU amine-coupled surface): does not result in glucose binding | glucose detection on C1 surface (FIG. 6) ([1]; 100 μM glucose, 9000 RU thiol-coupled protein surface): Glucose detection is evident | signal upon glucose binding, thiol-coupling in comparison to amino coupling or buffer only (FIG. 1) ([1]; 100 µM glucose, one minute injection): significantly enhanced signal | SPR Signal at Saturating Amounts of Glucose ([1]; amine coupling, C1 chip, 1 mM glucose): −4.9 ± 5.3/ RU | SPR Signal at Saturating Amounts of Glucose [1, 3]: 2.1 ± 5.5/ RU | SPR Signal, Buffer ([1]; amine coupling, C1 chip): 0.4 ± 3.1 RU | SPR Signal, Buffer ([1]; amine coupling, CM5 chip): 1.4 ± 3.1 RU | SPR Signal, Buffer ([1]; thiol coupling, C1 chip): 0.8 ± 1.5 RU | SPR Signal, Buffer ([1]; thiol coupling, CM5 chip): −0.5 ± 4.3 RU | SPR Signal, Buffer ([1]; thiol coupling, CM5 chip, denatured surface (neg control)): −1.4 ± 2.2 RU | SPR Signal, Buffer ([1]; thiol coupling, CM5 chip, refolded protein surface): −3.7 ± 1.5 RU | SPR Signal at Saturating Amounts of Glucose ([1]; thiol coupling, C1 chip, 100 μM glucose): 10.2 ± 2.8/ RU | SPR Signal at Saturating Amounts of Glucose [1, 4]: 17.7 ± 0.5/ RU | SPR Signal at Saturating Amounts of Glucose ([1]; thiol coupling, CM5 chip, denatured surface (neg control), 100 μM glucose): 0 ± 4.1/ RU | SPR Signal at Saturating Amounts of Glucose ([1]; thiol coupling, CM5 chip, refolded protein surface, 100 μM glucose): 11.4 ± 1.0/ RU | glucose signal after denaturation (FIG. 3) ([1]; thiol-coupled surface, 1 M guanidine HCl overnight, HBS-EP injections): did not result in glucose signals | glucose signal after renaturation (FIG. 3) ([1]; thiol-coupled surface, HBS-P and 1.5 mM CaCl2, continuous flow overnight): Glucose signals were restored | specificity to bind glucose preferentially over other sugars (FIG. 2) [2]: glucose binds more readily
